According to patent US20050053580A1, “Use of microbiology non-viral substances for treating acne” (priority 2001, published 2005):

Columns and labels:
SZ95 sebocytes = experiment: SZ95 sebocyte proliferation, crystal violet assay; format: cell-based, human; conditions: for increase in proliferation: after 72 h, native SZ95 sebocytes; for inhibition of the testosterone-induced stimulation of the SZ95 sebocyte proliferation: 10^−7 M testosterone, stimulation period 44 hours
androgen receptor = experiment: Androgen receptor expression by immunoblotting in SZ95 sebocytes; format: cell-based, human; conditions: for inhibition of the androgen receptor expression compared to native SZ95 sebocytes: 1.0 μM, after 14 h; for protein expression of the androgen receptor: 0.4 and 1.0 μM, after 24 hours
[1] = 1 μM oligonucleotide, 4 h transfection, 14 h recovery

C[C@]12CC[C@H]3[C@@H](CCC4=CC(=O)CC[C@@]43C)[C@@H]1CC[C@@H]2O [testosterone, reference compound] was tested, and the increase in proliferation (SZ95 sebocytes; 10^−7 and 5×10^−7 M testosterone) was “significant”.
With C[C@]12CCC(=O)C[C@@H]1CC[C@@H]1[C@@H]2CC[C@]2(C)[C@@H](O)CC[C@@H]12 [DHT, 5α-dihydrotestosterone, reference compound] the increase in proliferation (SZ95 sebocytes; 10^−7-10^−6 DHT) was “significant”.
“5′-CTGCCCTTCAATCCCTGAGTTTGGC-3′ (DNA CTGCCCTTCAATCCCTGAGTTTGGC; listed as DNA, chemistry not given here) [mismatch-oligonucleotide, mismatch control oligonucleotide to safeguard antisense specificity, reference compound]” was tested, and the “protein expression of the androgen receptor versus non-transfected cells” value (androgen receptor; four hours' transfection with DOTAP, recovery phase of at least 24 hours, Western blot) was “comparable”.
With “5′-CTGCACTTCCATCCTTGAGCTTGGC-3′ [Thioate antisense oligonucleotide]” the “proliferation pattern in the presence of testosterone” value (SZ95 sebocytes; [1]) was “same proliferation pattern as native cells”, the “inhibition of the testosterone-induced stimulation of the SZ95 sebocyte proliferation” value (SZ95 sebocytes; [1]) was “inhibited” and the “inhibition of the androgen receptor expression compared to native SZ95 sebocytes” value (androgen receptor) was 39%. The “protein expression of the androgen receptor” value (androgen receptor) was “reduced protein expression”.
For “5′-GCCAAGCUCAAGGAUGGAAGUGCAG-3′ (antisense GCCAAGCUCAAGGAUGGAAGUGCAG; 2'-O-methylribose, further chemistry not given here) [methylribosyl antisense oligonucleotide against the androgen receptor]”, the “inhibition of the testosterone-induced stimulation of the SZ95 sebocyte proliferation” value (SZ95 sebocytes; [1]) was “highly significant”, the “inhibition of the androgen receptor expression compared to native SZ95 sebocytes” value (androgen receptor) was 87% and the “protein expression of the androgen receptor” value (androgen receptor) was “reduced protein expression”.
